Where two headings read alike, the source gives them in different places. Non-standard residues stand in square brackets, D forms with d. Residues, ends and D or L forms follow the SMILES beside them. No end group written: not given here. pS = N[C@@H](COP(=O)(O)O)C(=O)O
Experiments:
[1] = tested on: Streptococcus mutans U159; assay type: cell-based
Procedure: MICs were assessed for all proteins/peptides against Streptococcus mutants (S. mutans) U159 oral bacteria to identify the lowest concentration at which no bacterial growth is observed. Planktonic bacteria were grown aerobically (10% CO2) in brain heart infusion (BHI) medium (BD BBL™ #211,059, MD, USA) overnight. […] BHI medium was used as a control. Bacteria were inoculated to a final concentration of 3.0 × 10^6 CFU/ml per well. The plates were incubated at 37 °C in a 10% CO2 atmosphere for 24 h under continuous shaking (200 rpm). Absorbance at 620 nm was measured using a microtiter plate reader (BioTek™ SynergyHT, VT, USA).

S. mutans U159 biofilms [2] = experiment: Crystal violet (CV) biomass assay on pellicle-coated substrates; assay type: cell-based, Streptococcus mutans; conditions: no sucrose (NS), 24 h biofilm; for Biovolume / biomass of biofilm (crystal violet): pellicle-coated with 200 μM for 2 h at 37 °C, OD 620 nm, compared to whole saliva; for Biofilm structure (brightfield, crystal violet-stained): polystyrene microtiter plates
Procedure: CV assay was performed to assess the remaining bioburden on pellicle-coated substrates with protein/peptide test groups in comparison to human whole saliva. Microtiter plates and HA discs were used as substrates to be pellicle-coated before growing biofilms. Each substrate was pellicle-coated with 50 μl of 200 μM protein/peptide candidates for 2 h at 37 °C under gentle shaking. Pooled filtered whole saliva and the vehicle were used as positive and negative controls respectively. The unbound protein/peptide/saliva were removed, the adjusted inoculum was dispensed without or with 1% sucrose supplementation and the samples were incubated as mentioned above but without agitation. Next day, the samples were rinsed and stained with 0.1% CV. After 15 min, the stain was rinsed, air dried, and photographed. All formed biofilms were structurally characterized with a bright field inverted microscope (EVOS™ xl core, MA, USA) before dissolving the satin, with 33% acetic acid, and reading at OD 620 nm.

S. mutans U159 biofilms [3] = experiment: 2-photon 3D renderings of biofilms grown on pellicle-coated HA discs; assay type: cell-based, Streptococcus mutans; conditions: 24 h biofilm, cariogenic conditions (1% sucrose), 2-photon 3D volume
Source text: Z-stacks were acquired with the 2-photon microscope (Ultima IV, Prairie Technology Inc., WI, USA) for 3D structural and vitality characterization of biofilms grown on protein/peptide pellicle-coated HA discs. Non-descanned high sensitivity multi-alckali photocatode photomultiplier detectors (R3896, Hamamatsu, Japan) were used to allow visualization of multiple fluorophores located deep within the specimen. The infra-red (IR) laser (MAI TAI, Spectra-Physics, USA), tuned at 870 nm, was operated in pulsed mode using a 20 × NA1.0 water-immersion objective (XLUMPlanFLN, Olympus, Japan) with a 2 mm working distance suitable for deep imaging. Images were compiled and analyzed with FIJI software (Fiji Is Just) ImageJ, version: 2.1.0/1.53c https://imagej.net/Contributors[19].

S. mutans U159 biofilms [4] = experiment: Live/dead vitality assay of biofilms on pellicle coatings; assay type: cell-based, Streptococcus mutans; conditions: NS and WS conditions, HA discs; order Hist3 followed by Hist5, Hist1 and RR14; 3 independent times, n = 5
Procedure: The vitality of grown biofilms was observed alongside their biomass to determine the antimicrobial efficacy of protein/peptide pellicle-coatings against the attached bacteria in the biofilm state. All the steps are the same as mentioned above till the staining step. Working fluorescent solution was prepared by adding 3 μl of SYTO® 9 stain and 3 μl of Propidium iodide stain to 1 ml of filter-sterilized water. The staining solution was added to each sample very gently so as not to disturb the biofilm. After 20 min light-protected incubation, samples were rinsed with 0.9% NaCl and imaged with fluorescent inverted microscope (EVOS™ M5000, MA, USA) using 20 × lens. All assays were conducted 3 independent times with sample size n = 5.

[5] = 2-photon immobilization of fluorescently labelled proteins/peptides on human enamel; assay type: binding; conditions: FAM-labelled
Source text: This characterization method aimed to monitor the amount of protein/peptide molecules immobilized on enamel in pellicle-mimicking conditions to infer their binding capacity. Z-stacks for pellicle-coated enamel slices were acquired to monitor the immobilization patterns and thus, the binding capacity of fluorescently-labelled proteins/peptides. Enamel samples were ground to 0.5–0.6 mm and polished with 600 silica-grit papers using a polishing machine (Buehler, IL, USA). Samples were then ultrasonicated in a water bath for 20 min, dried and pellicle-coated with fluorescently labeled proteins/peptides as mentioned above. 2-photon images were acquired as aforementioned using 40 × NA 0.8 water immersion objective (LUMPlanFl/IR, Olympus, Japan). Solutions of the tagging molecule (FAM) and the vehicle, 0.01% acetic acid, were used to pellicle-coat the positive and negative controls respectively. The amount of immobilized fluorescent protein/peptide molecules were quantified by calibrating the emitted fluorescence signals[21]^. The mean integrated density was calculated that sums all of the pixels along the acquired z-stacks, 4 images each.

[6] = planktonic S. mutans U159, BHI medium, 3.0 × 10^6 CFU/ml, twofold dilutions 0–512 μM, 37 °C, 10% CO2, 24 h, shaking 200 rpm, absorbance 620 nm

Q: For `CC(C)C[C@H](NC(=O)[C@H](Cc1ccccc1)NC(=O)[C@H](CCCCN)NC(=O)[C@H](CCC(=O)O)NC(=O)[C@H](CCC(=O)O)NC(=O)[C@H](CO)NC(=O)[C@H](CO)NC(=O)[C@@H](N)CC(=O)O)C(=O)N[C@@H](CCCNC(=N)N)C(=O)O` [DR9/2] (H-DSSEEKFLR-OH), which MIC ([1]; U159, 24 h) is on record?
A: Its MIC is over 512 µM.

Q: Which MIC ([1]; U159, 24 h) does the source give for `CC(C)C[C@H](NC(=O)[C@H](Cc1ccccc1)NC(=O)[C@H](CCCCN)NC(=O)[C@H](CCC(=O)O)NC(=O)[C@H](CCC(=O)O)NC(=O)[C@H](COP(=O)(O)O)NC(=O)[C@H](COP(=O)(O)O)NC(=O)[C@@H](N)CC(=O)O)C(=O)N[C@@H](CCCNC(=N)N)C(=O)O` [DR9] (H-D[pS][pS]EEKFLR-OH; N-terminus and C-terminus assumed) here?
A: Its MIC is over 512 µM.

Q: And the “Biovolume / biomass of biofilm (crystal violet)” value (from here on “Biovolume / biomass of biofilm”) (S. mutans U159 biofilms [2])?
A: Its value is “considerably reduced biomass build-up”.

Q: And the Biofilm thickness (S. mutans U159 biofilms [3])?
A: Its Biofilm thickness is 60–65 μm.

Q: Which MIC [1, 6] does the source give for `CC(C)C[C@H](NC(=O)[C@H](Cc1ccc(O)cc1)NC(=O)[C@H](CC(N)=O)NC(=O)[C@H](CO)NC(=O)[C@H](CCCNC(=N)N)NC(=O)[C@H](Cc1ccc(O)cc1)NC(=O)CNC(=O)[C@H](CCCNC(=N)N)NC(=O)[C@H](Cc1c[nH]cn1)NC(=O)[C@H](CO)NC(=O)[C@H](Cc1c[nH]cn1)NC(=O)[C@H](Cc1c[nH]cn1)NC(=O)[C@H](CCCCN)NC(=O)[C@H](CCC(=O)O)NC(=O)[C@H](Cc1c[nH]cn1)NC(=O)[C@H](Cc1ccccc1)NC(=O)[C@H](CCCCN)NC(=O)[C@H](CCCNC(=N)N)NC(=O)[C@H](CCCCN)NC(=O)[C@H](Cc1ccc(O)cc1)NC(=O)CNC(=O)[C@H](Cc1c[nH]cn1)NC(=O)[C@H](Cc1c[nH]cn1)NC(=O)[C@H](CCCNC(=N)N)NC(=O)[C@H](CCCCN)NC(=O)[C@H](C)NC(=O)[C@H](Cc1c[nH]cn1)NC(=O)[C@H](CO)NC(=O)[C@@H](N)CC(=O)O)C(=O)N[C@@H](Cc1ccc(O)cc1)C(=O)N[C@@H](CC(=O)O)C(=O)N[C@@H](CC(N)=O)C(=O)O` [Histatin3] here?
A: Its MIC is 128 µM.

Q: And the “Biovolume / biomass of biofilm” value (S. mutans U159 biofilms [2])?
A: The value was “considerably reduced biomass build-up”.

Q: What about the “Biofilm structure (brightfield, crystal violet-stained)” value (“Biofilm structure” for short) (S. mutans U159 biofilms [2]) of the same compound?
A: Its value is “more dispersed biofilms”.

Q: What about the “Dead cells / antimicrobial efficacy in biofilm (Syto-9/propidium iodide)” value (S. mutans U159 biofilms [4]) of the same compound?
A: The value was “Many dead cells”.

Q: Which MIC ([1]; U159, 24 h) does the source give for `N=C(N)NCCC[C@H](NC(=O)[C@H](Cc1ccc(O)cc1)NC(=O)CNC(=O)[C@H](CCCNC(=N)N)NC(=O)[C@H](Cc1c[nH]cn1)NC(=O)[C@H](CO)NC(=O)[C@H](Cc1c[nH]cn1)NC(=O)[C@H](Cc1c[nH]cn1)NC(=O)[C@H](CCCCN)NC(=O)[C@H](CCC(=O)O)NC(=O)[C@H](Cc1c[nH]cn1)NC(=O)[C@H](Cc1ccccc1)NC(=O)[C@H](CCCCN)NC(=O)[C@@H](N)CCCNC(=N)N)C(=O)O` [RR14] (H-RKFHEKHHSHRGYR-OH) here?
A: The MIC was 384 µM.

Q: Which MIC [1, 6] does the source give for “DSpSpEEKFLRDSpSpEEKFLR [DR9-DR9, duplicated DR9 construct, domains linked synthetically]” here?
A: Its MIC is over 512 µM.

Q: What about the “Biovolume / biomass of biofilm” value (S. mutans U159 biofilms [2]) of the same compound?
A: The value was “highest biovolume”.

Q: What about the “Biofilm structure” value (S. mutans U159 biofilms [2]) of the same compound?
A: Its value is “clumps and aggregates”.

Q: For “D[pS][pS]EEKFLRRIGRFGYGYGPYQPVPEQPLYPQPYQPQYQQYTF [Statherin]”, which MIC ([1]; U159, 24 h) is on record?
A: Its MIC is over 512 µM.

Q: And the “Biovolume / biomass of biofilm” value (S. mutans U159 biofilms [2])?
A: Its value is “highest biovolume”.

Q: What about the “Biofilm structure” value (S. mutans U159 biofilms [2]) of the same compound?
A: Its value is “clumps and aggregates”.

Q: And the “Immobilization capacity on enamel” value [5]?
A: Its value is “highest immobilization capacity”.

Q: Which MIC [1, 6] does the source give for “Histatin1: native salivary protein, synthesized (DSHEKRHHGYRRKFHEKHHSHREFPFYGDYGSNYLYDN; ends and bridges not checked; UniProt P15515 20-57, looked up)” here?
A: The MIC was over 512 µM.

Q: What about the “Biovolume / biomass of biofilm” value (S. mutans U159 biofilms [2]) of the same compound?
A: The value was “highest biovolume”.

Q: And the “Dead cells / antimicrobial efficacy in biofilm (Syto-9/propidium iodide)” value (S. mutans U159 biofilms [4])?
A: Its value is “Many dead cells”.

Reference: paper PMC8379205, “Bioinspired caries preventive strategy via customizable pellicles of saliva-derived protein/peptide constructs” (Scientific Reports, 2021)
